Patent publication US8236835B2, “Heterocyclic inhibitors of stearoyl-CoA desaturase” (Novartis AG, priority 2006, dated 2012)

First: Cc1nc(N2CCCC(CCc3ccccc3)C2=O)sc1C(=O)NCc1ccccc1 (stereo not shown) [Example 3.1, N-benzyl-4-methyl-2-(2-oxo-3-phenethylpiperidin-1-yl)thiazole-5-carboxamide]
Second: Cc1nc(N2CCCC(CCCc3ccccc3)C2=O)sc1C(=O)NCc1ccccc1 (stereo not shown) [Example 3.2, N-benzyl-4-methyl-2-(2-oxo-3-(3-phenylpropyl)piperidin-1-yl)thiazole-5-carboxamide]
The melting point of the first is lower: 124 to 126 °C for the first, 140 to 141 °C for the second.

First: CCc1ccc(/C=C2\CCCN(c3nc(C)c(C(=O)NCc4ccccc4)s3)C2=O)s1 [Example 10.1, N-benzyl-2-(3-((5-ethylthiophen-2-yl)methylene)-2-oxopiperidin-1-yl)-4-methylthiazole-5-carboxamide]
Second: Cc1nc(N2CCC/C(=C\c3cccnc3)C2=O)sc1C(=O)NCc1ccccc1 [Example 10.2, N-benzyl-4-methyl-2-(2-oxo-3-(pyridin-3-ylmethylene)piperidin-1-yl)thiazole-5-carboxamide]
The melting point of the first is lower: 171 to 172 °C for the first, 206 to 208 °C for the second.

First: Cc1nc(N2CCCC2=O)sc1C(=O)NCc1ccccc1 [Example 1, N-benzyl-4-methyl-2-(2-oxopyrrolidin-1-yl)thiazole-5-carboxamide]
Second: Cc1nc(N2CCCCC2=O)sc1C(=O)NCc1ccccc1 [Example 1.2, N-benzyl-4-methyl-2-(2-oxopiperidin-1-yl)thiazole-5-carboxamide]
The melting point of the first is higher: 222 to 224 °C for the first, 175 to 176 °C for the second.

First: Cc1nc(N2CCC(NCCC3CC3)C2=O)sc1C(=O)NCc1ccc(F)cc1 (stereo not shown) [Example 5, 2-(3-(2-cyclopropylethylamino)-2-oxopyrrolidin-1-yl)-N-(4-fluorobenzyl)-4-methylthiazole-5-carboxamide]
Second: Cc1nc(N2CCC(CC3CC3)C2=O)sc1C(=O)NCc1ccc(F)cc1 (stereo not shown) [Example 3, 2-(3-(cyclopropylmethyl)-2-oxopyrrolidin-1-yl)-N-(4-fluorobenzyl)-4-methylthiazole-5-carboxamide]
The melting point of the first is lower: 151 to 152 °C for the first, 153 to 155 °C for the second.

First: Cc1nc(N2CCC(Cc3ccc(C(F)(F)F)cc3)C2=O)sc1C(=O)NCc1ccc(F)cc1 (stereo not shown) [Example 2, N-(4-fluorobenzyl)-4-methyl-2-(2-oxo-3-(4-(trifluoromethyl)benzyl)pyrrolidin-1-yl)thiazole-5-carboxamide]
Second: Cc1nc(N2CCC(Cc3ccc(OC(F)(F)F)cc3)C2=O)sc1C(=O)NCc1ccc(F)cc1 (stereo not shown) [Example 2.3, N-(4-fluorobenzyl)-4-methyl-2-(2-oxo-3-(4-(trifluoromethoxy)benzyl)pyrrolidin-1-yl)thiazole-5-carboxamide]
The melting point of the first is higher: 175 to 176 °C for the first, 165 to 166 °C for the second.

Compared with `Cc1nc(N2CCCC(NCC3CC3)C2=O)sc1C(=O)NCc1ccccc1` (stereo not shown) [Example 5.4, N-benzyl-2-(3-(cyclopropylmethylamino)-2-oxopiperidin-1-yl)-4-methylthiazole-5-carboxamide], `Cc1nc(N2CCCC(NCc3ccc(C(F)(F)F)cc3)C2=O)sc1C(=O)NCc1ccccc1` (stereo not shown) [Example 5.3, N-benzyl-4-methyl-2-(2-oxo-3-(4-(trifluoromethyl)benzylamino)piperidin-1-yl)thiazole-5-carboxamide] is lower in melting point: 125 to 126 °C for the first, 39 to 40 °C for the second.

First: Cc1nc(N2CCCC(Cc3ccc(F)cc3)C2=O)sc1C(=O)NCc1ccccc1 (stereo not shown) [Example 2.12, N-benzyl-2-(3-(4-fluorobenzyl)-2-oxopiperidin-1-yl)-4-methylthiazole-5-carboxamide]
Second: Cc1ccc(CC2CCCN(c3nc(C)c(C(=O)NCc4ccccc4)s3)C2=O)cc1 (stereo not shown) [Example 2.7, N-benzyl-4-methyl-2-(3-(4-methylbenzyl)-2-oxopiperidin-1-yl)thiazole-5-carboxamide]
The melting point of the first is higher: 154 to 155 °C for the first, 110 to 113 °C for the second.

First: Cc1nc(N2CCCC(Cc3cc(F)ccc3F)C2=O)sc1C(=O)NCc1ccccc1 (stereo not shown) [Example 2.10, N-benzyl-2-(3-(2,5-difluorobenzyl)-2-oxopiperidin-1-yl)-4-methylthiazole-5-carboxamide]
Second: Cc1nc(N2CCCC(Cc3cccc(F)c3)C2=O)sc1C(=O)NCc1ccccc1 (stereo not shown) [Example 2.8, N-benzyl-2-(3-(3-fluorobenzyl)-2-oxopiperidin-1-yl)-4-methylthiazole-5-carboxamide]
The melting point of the first is lower: 144 to 145 °C for the first, 170 to 171 °C for the second.

Compared with `Cc1nc(N2CCCC(Cc3cccnc3)C2=O)sc1C(=O)NCc1ccccc1` (stereo not shown) [Example 11, N-benzyl-4-methyl-2-(2-oxo-3-(pyridin-3-ylmethyl)piperidin-1-yl)thiazole-5-carboxamide], `Cc1nc(N2CCCC(Cc3ccccc3)C2=O)sc1C(=O)NCc1ccccc1` (stereo not shown) [Example 2.11, N-benzyl-2-(3-benzyl-2-oxopiperidin-1-yl)-4-methylthiazole-5-carboxamide] is higher in melting point: 140 to 141 °C for the first, 162 to 164 °C for the second.

First: COc1ccc(CC2CCCN(c3nc(C)c(C(=O)NCc4ccccc4)s3)C2=O)cc1 (stereo not shown) [Example 2.9, N-benzyl-2-(3-(4-methoxybenzyl)-2-oxopiperidin-1-yl)-4-methylthiazole-5-carboxamide]
Second: Cc1nc(N2CCCC(Cc3ccc(C(F)(F)F)cc3)C2=O)sc1C(=O)NCc1ccccc1 (stereo not shown) [Example 2.6, N-benzyl-4-methyl-2-(2-oxo-3-(4-(trifluoromethyl)benzyl)piperidin-1-yl)thiazole-5-carboxamide]
The melting point of the first is lower: 116 to 118 °C for the first, 217 to 218 °C for the second.

First: Cc1nc(N2CCCC(Cc3ccc(C(F)(F)F)cc3)C2=O)sc1C(=O)NCc1cccc(F)c1 (stereo not shown) [Example 2.14, N-(3-fluorobenzyl)-4-methyl-2-(2-oxo-3-(4-(trifluoromethyl)benzyl)piperidin-1-yl)thiazole-5-carboxamide]
Second: Cc1nc(N2CCCC(Cc3ccc(F)cc3)C2=O)sc1C(=O)NCc1cccc(F)c1 (stereo not shown) [Example 2.13, N-(3-fluorobenzyl)-2-(3-(4-fluorobenzyl)-2-oxopiperidin-1-yl)-4-methylthiazole-5-carboxamide]
The melting point of the first is higher: 177 to 178 °C for the first, 173 to 175 °C for the second.

Compared with `Cc1nc(N2CCC(NCc3ccc(F)cc3)C2=O)sc1C(=O)NCc1ccc(F)cc1` (stereo not shown) [Example 5.1, N-(4-fluorobenzyl)-2-(3-(4-fluorobenzylamino)-2-oxopyrrolidin-1-yl)-4-methylthiazole-5-carboxamide], `Cc1nc(N2CCC(Cc3ccc(F)cc3)C2=O)sc1C(=O)NCc1ccc(F)cc1` (stereo not shown) [Example 2.1, N-(4-fluorobenzyl)-2-(3-(4-fluorobenzyl)-2-oxopyrrolidin-1-yl)-4-methylthiazole-5-carboxamide] is higher in melting point: 123 to 124 °C for the first, 196 to 197 °C for the second.

`Cc1nc(N2C[C@H](O)CC2=O)sc1C(=O)NCc1ccccc1` [Example 7.1, (R)-N-benzyl-2-(4-hydroxy-2-oxopyrrolidin-1-yl)-4-methylthiazole-5-carboxamide] and `Cc1nc(N2C[C@@H](O)CC2=O)sc1C(=O)NCc1ccccc1` [Example 7, (S)-N-benzyl-2-(4-hydroxy-2-oxopyrrolidin-1-yl)-4-methylthiazole-5-carboxamide] fall in the same range of melting point: 203 to 204 °C for the first, 203 to 204 °C for the second.

First: Cc1nc(N2CCC(Cc3ccc(C(F)(F)F)cc3)C2=O)sc1C(=O)NCc1ccccc1 (stereo not shown) [Example 2.4, N-benzyl-4-methyl-2-(2-oxo-3-(4-(trifluoromethyl)benzyl)pyrrolidin-1-yl)thiazole-5-carboxamide]
Second: Cc1nc(N2CCC(Cc3ccc(OC(F)F)cc3)C2=O)sc1C(=O)NCc1ccccc1 (stereo not shown) [Example 2.5, N-benzyl-2-(3-(4-(difluoromethoxy)benzyl)-2-oxopyrrolidin-1-yl)-4-methylthiazole-5-carboxamide]
The melting point of the first is higher: 174 to 175 °C for the first, 132 to 133 °C for the second.

Compared with `Cc1nc(N2CCCC(C(O)c3ccccc3)C2=O)sc1C(=O)NCc1ccccc1` (stereo not shown) [Example 10, N-benzyl-2-(3-(hydroxy(phenyl)methyl)-2-oxopiperidin-1-yl)-4-methylthiazole-5-carboxamide], `Cc1nc(N2CC(Cc3ccccc3)CC2=O)sc1C(=O)NCc1ccccc1` (stereo not shown) [Example 6, N-benzyl-2-(4-benzyl-2-oxopyrrolidin-1-yl)-4-methylthiazole-5-carboxamide] is higher in melting point: 74 to 75 °C for the first, 143 to 144 °C for the second.

First: Cc1nc(N2CCC(Cc3ccc(F)cc3)C2=O)sc1C(=O)NCc1cccnc1 (stereo not shown) [Example 8, 2-(3-(4-fluorobenzyl)-2-oxopyrrolidin-1-yl)-4-methyl-N-(pyridin-3-ylmethyl)thiazole-5-carboxamide]
Second: Cc1nc(N2CCC(Cc3ccc(OC(F)(F)F)cc3)C2=O)sc1C(=O)NCc1cccnc1 (stereo not shown) [Example 8.1, 4-methyl-2-(2-oxo-3-(4-(trifluoromethoxy)benzyl)pyrrolidin-1-yl)-N-(pyridin-3-ylmethyl)thiazole-5-carboxamide]
The melting point of the first is higher: 169 to 170 °C for the first, 158 to 160 °C for the second.

Compared with `Cc1nc(N2CCC(NCCC(F)(F)F)C2=O)sc1C(=O)NCc1ccc(F)cc1` (stereo not shown) [Example 5.2, N-(4-fluorobenzyl)-4-methyl-2-(2-oxo-3-(3,3,3-trifluoropropylamino)pyrrolidin-1-yl)thiazole-5-carboxamide], `Cc1nc(N2CCC(Cc3ccc(OC(F)F)cc3)C2=O)sc1C(=O)NCc1ccc(F)cc1` (stereo not shown) [Example 2.2, 2-(3-(4-(difluoromethoxy)benzyl)-2-oxopyrrolidin-1-yl)-N-(4-fluorobenzyl)-4-methylthiazole-5-carboxamide] is higher in melting point: 142 to 143 °C for the first, 143 to 145 °C for the second.
